In this assay the test system is human cervical tumor cell line HeLa (ATCC CCL-2). Kind of assay: SAC-Formation - Paclitaxel-Induced Assay. The settings on record: Homo sapiens, HeLa, 24 h, HeLa cells, paclitaxel 0.05 μM, test range 0.005 μM-20 μM, read-out: IC50 [mol/l] SAC-Formation - Paclitaxel-Induced Assay. The assay is classed as cell-based. The procedure, abridged: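 HeLa cells incubated overnight at 37° C, then given paclitaxel (0.05 μM final) plus test compound (0.005–20 μM, 0.5% DMSO) together for 24 h at 37° C. Fixed cells stained for phospho-histone H3 Ser10 (mitotic cells) and Hoechst 33342 (cell count); imaging-derived mitotic index fitted by four-parameter Hill equation.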

As to `Cc1nsc(Nc2cnc(C(F)(F)F)cn2)c1C(=O)Nc1ccc(C(=O)NCCN2CCCC(F)C2)cc1` (centres unmarked) [Example 213, N-(4-{[2-(3-fluoropiperidin-1-yl)ethyl]carbamoyl}phenyl)-3-methyl-5-{[5-(trifluoromethyl)pyrazin-2-yl]amino}-1,2-thiazole-4-carboxamide], the IC50 turned out to be 2900 nM.
With `CC(=O)N1CCC(Oc2ccc(NC(=O)c3c(C)nsc3Nc3cncc(C(F)(F)F)n3)cn2)CC1` [Example 17, N-{6-[(1-Acetylpiperidin-4-yl)oxy]pyridin-3-yl}-3-methyl-5-{[6-(trifluoromethyl)-pyrazin-2-yl]amino}-1,2-thiazole-4-carboxamide] the figure was 300 nM.
In the case of `Cc1nsc(Nc2cnc(C(F)(F)F)cn2)c1C(=O)Nc1ccc(F)c(OC2CCN(C(=O)OC(C)(C)C)CC2)c1` [Example 229, tert-butyl 4-(2-fluoro-5-{[(3-methyl-5-{[5-(trifluoromethyl)pyrazin-2-yl]amino}-1,2-thiazol-4-yl)carbonyl]amino}phenoxy)piperidine-1-carboxylate] it was 360 nM; in that of `Cc1nsc(Nc2cnc3ccccc3n2)c1C(=O)Nc1ccc(Oc2ccc(SC(F)(F)F)cc2)nc1` [Example 233, 3-methyl-5-(quinoxalin-2-ylamino)-N-(6-{4-[(trifluoromethyl)sulfanyl]phenoxy}pyridin-3-yl)-1,2-thiazole-4-carboxamide], 4100 nM.
With `Cc1nsc(Nc2cncc(C(F)(F)F)n2)c1C(=O)Nc1ccc(C(=O)NCCN2CCCC(F)(F)C2)cc1` [Example 214, N-(4-{[2-(3,3-difluoropiperidin-1-yl)ethyl]carbamoyl}phenyl)-3-methyl-5-{[6-(trifluoromethyl)pyrazin-2-yl]amino}-1,2-thiazole-4-carboxamide] the figure was 1600 nM; with `Cc1nsc(Nc2ccc(C#N)cn2)c1C(=O)Nc1cccc(C(=O)OC(C)(C)C)c1` [Example 240, tert-butyl 3-[({5-[(5-cyanopyridin-2-yl)amino]-3-methyl-1,2-thiazol-4-yl}carbonyl)amino]benzoate], 70 nM.
As to `CNS(=O)(=O)c1ccc(NC(=O)c2c(C)nsc2Nc2cncc(C(F)(F)F)n2)cc1` [Example 211, 3-methyl-N-[4-(methylsulfamoyl)phenyl]-5-{[6-(trifluoromethyl)pyrazin-2-yl]amino}-1,2-thiazole-4-carboxamide], the IC50 was 47 nM.
With `Cc1nsc(Nc2cnc3ccccc3n2)c1C(=O)Nc1ccccc1S(C)(=O)=O` [Example 188, 3-methyl-N-[2-(methylsulfonyl)phenyl]-5-(quinoxalin-2-ylamino)-1,2-thiazole-4-carboxamide] the figure was 10000 nM; with `Cc1nsc(Nc2cnc3ccccc3n2)c1C(=O)Nc1ccc(C(=O)OC(C)(C)C)cc1` [Example 181, tert-butyl 4-({[3-methyl-5-(quinoxalin-2-ylamino)-1,2-thiazol-4-yl]carbonyl}amino)benzoate], 100 nM.
With `Cc1nsc(Nc2cnc(C(F)(F)F)cn2)c1C(=O)Nc1ccc(OCCN)nc1` [Example 197, N-[6-(2-aminoethoxy)pyridin-3-yl]-3-methyl-5-{[5-(trifluoromethyl)pyrazin-2-yl]amino}-1,2-thiazole-4-carboxamide] the figure was 600 nM; with `CNS(=O)(=O)c1ccc(NC(=O)c2c(C)nsc2Nc2cnc(C(F)(F)F)cn2)cc1` [Example 212, 3-methyl-N-[4-(methylsulfamoyl)phenyl]-5-{[5-(trifluoromethyl)pyrazin-2-yl]amino}-1,2-thiazole-4-carboxamide], 4100 nM; with `Cc1nsc(Nc2cnc3ccccc3n2)c1C(=O)Nc1ccc(C(=O)O)cc1` [Example 187, 4-({[3-methyl-5-(quinoxalin-2-ylamino)-1,2-thiazol-4-yl]carbonyl}amino)benzoic acid], 1400 nM.
With `Cc1nsc(Nc2cnc3ccccc3n2)c1C(=O)Nc1ccc(NC2CCN(C(=O)OC(C)(C)C)CC2)nc1` [Example 234, tert-butyl 4-{[5-({[3-methyl-5-(quinoxalin-2-ylamino)-1,2-thiazol-4-yl]carbonyl}amino)pyridin-2-yl]amino}piperidine-1-carboxylate] the figure was 10000 nM; with `Cc1nsc(Nc2cncc(C(F)(F)F)n2)c1C(=O)Nc1ccc(OC2CCN(CCF)CC2)c(F)c1` [Example 223, N-(3-fluoro-4-{[1-(2-fluoroethyl)piperidin-4-yl]oxy}phenyl)-3-methyl-5-{[6-(trifluoromethyl)pyrazin-2-yl]amino}-1,2-thiazole-4-carboxamide], 110 nM.
For the compound `Cc1nsc(Nc2cnc3ccccc3n2)c1C(=O)Nc1ccc(NC(=O)C(C)(C)C)cc1` [Example 185, N-{4-[(2,2-dimethylpropanoyl)amino]phenyl}-3-methyl-5-(quinoxalin-2-ylamino)-1,2-thiazole-4-carboxamide], the IC50 stood at 4700 nM.
With `Cc1nsc(Nc2cncc(C(F)(F)F)n2)c1C(=O)Nc1ccc(OC2CCN(C(C)C)CC2)nc1` [Example 218, N-{6-[(1-isopropylpiperidin-4-yl)oxy]pyridin-3-yl}-3-methyl-5-{[6-(trifluoromethyl)pyrazin-2-yl]amino}-1,2-thiazole-4-carboxamide] the figure was 3900 nM; with `Cc1nsc(Nc2cncc(C(F)(F)F)n2)c1C(=O)Nc1ccc(F)c(C(N)=O)c1` [Example 204, N-(3-carbamoyl-4-fluorophenyl)-3-methyl-5-{[6-(trifluoromethyl)pyrazin-2-yl]amino}-1,2-thiazole-4-carboxamide], 450 nM.

The values are drawn from patent US20170334899A1, “AMINO-SUBSTITUTED ISOTHIAZOLES” (Bayer Pharma Aktiengesellschaft, priority 2014, published 2017).
